Measured values: ChEMBL document CHEMBL1201862, “PubChem BioAssay data set” (2004)
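All cell lines were grown in 96-well plates and treated with compound for 48 hours. GI50 marks 50% less growth.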 Active and inactive are the calls of the source. No stated cut-off is given here; in the data, active = GI50 up to about 1.1 µM and inactive = higher.

Experiments:
Assay in all cases: NCI anticancer screen, dose series, 48 h
[1] = tested on: MDA-MB-231
[2] = tested on: DU-145
[3] = tested on: HT-29
[4] = tested on: LOX IMVI
[5] = tested on: T47D
[6] = tested on: MCF7
[7] = tested on: SK-OV-3
[8] = tested on: OVCAR-8
[9] = tested on: SK-MEL-2
[10] = tested on: HCT-15
[11] = tested on: SR
[12] = tested on: OVCAR-5
[13] = tested on: COLO 205
[14] = tested on: 786-0
[15] = tested on: NCI-H460
[16] = tested on: BT-549
[17] = tested on: M14
[18] = tested on: NCI/ADR-RES
[19] = tested on: SF-268
[20] = tested on: PC-3
[21] = tested on: KM12
[22] = tested on: SF-539
[23] = tested on: HOP-62
[24] = tested on: RXF 393
[25] = tested on: NCI-H226
[26] = tested on: MDA-N
[27] = tested on: OVCAR-3
[28] = tested on: U-251
[29] = tested on: ACHN
[30] = tested on: NCI-H522
[31] = tested on: IGROV-1
[32] = tested on: Hs-578T
[33] = tested on: UACC-62
[34] = tested on: EKVX
[35] = tested on: K562
[36] = tested on: UACC-257
[37] = tested on: CCRF-CEM
[38] = tested on: A549
[39] = tested on: Malme-3M
[40] = tested on: HOP-92
[41] = tested on: RPMI-8226
[42] = tested on: SNB-19
[43] = tested on: CAKI-1
[44] = tested on: MDA-MB-435
[45] = tested on: SK-MEL-5
[46] = tested on: UO-31
[47] = tested on: SW-620
[48] = tested on: A498
[49] = tested on: SN12C
[50] = tested on: SF-295
[51] = tested on: HL-60
[52] = tested on: SNB-75
[53] = tested on: HCT-116
[54] = tested on: OVCAR-4
[55] = tested on: TK-10
[56] = tested on: SK-MEL-28
[57] = tested on: NCI-H23
[58] = tested on: HCC 2998
[59] = tested on: MOLT-4

O=S(=O)(O)c1ccc2c(/N=N/c3c(O)ccc4ccccc34)cccc2c1
GI50 [1]: > 100 µM (inactive)
GI50 [2]: > 100 µM (inactive)
GI50 [3]: > 100 µM (inactive)
GI50 [4]: > 100 µM (inactive)
GI50 [5]: > 100 µM (inactive)
GI50 [6]: > 100 µM (inactive)
GI50 [7]: > 100 µM (inactive)
GI50 [8]: > 100 µM (inactive)
GI50 [9]: > 100 µM (inactive)
GI50 [10]: > 100 µM
GI50 [11]: > 100 µM (inactive)
GI50 [12]: > 100 µM (inactive)
GI50 [13]: > 100 µM (inactive)
GI50 [14]: > 100 µM (inactive)
GI50 [15]: > 100 µM (inactive)
GI50 [16]: > 100 µM (inactive)
GI50 [17]: > 100 µM (inactive)
GI50 [18]: > 100 µM (inactive)
GI50 [19]: > 100 µM (inactive)
GI50 [20]: > 100 µM (inactive)
GI50 [21]: > 100 µM (inactive)
GI50 [22]: > 100 µM (inactive)
GI50 [23]: > 100 µM (inactive)
GI50 [24]: > 100 µM (inactive)
GI50 [25]: > 100 µM (inactive)
GI50 [26]: > 100 µM (inactive)
GI50 [27]: 88.9 µM (inactive)
GI50 [28]: > 100 µM (inactive)
GI50 [29]: > 100 µM (inactive)
GI50 [30]: > 100 µM (inactive)
GI50 [31]: 65.8 µM (inactive)
GI50 [32]: > 100 µM (inactive)
GI50 [33]: > 100 µM (inactive)
GI50 [34]: 61.5 µM (inactive)
GI50 [35]: 34.3 µM (inactive)
GI50 [36]: > 100 µM (inactive)
GI50 [37]: 70.6 µM (inactive)
GI50 [38]: > 100 µM (inactive)
GI50 [39]: > 100 µM (inactive)
GI50 [40]: > 100 µM (inactive)
GI50 [41]: > 100 µM (inactive)
GI50 [42]: > 100 µM (inactive)
GI50 [43]: > 100 µM (inactive)
GI50 [44]: > 100 µM (inactive)
GI50 [45]: > 100 µM (inactive)
GI50 [46]: > 100 µM (inactive)
GI50 [47]: > 100 µM (inactive)
GI50 [48]: > 100 µM (inactive)
GI50 [49]: > 100 µM (inactive)
GI50 [50]: > 100 µM (inactive)
GI50 [51]: > 100 µM (inactive)
GI50 [52]: > 100 µM (inactive)
GI50 [53]: > 100 µM (inactive)
GI50 [54]: > 100 µM (inactive)
GI50 [55]: > 100 µM (inactive)
GI50 [56]: > 100 µM (inactive)
GI50 [57]: > 100 µM (inactive)

Cc1ccc(NC(=O)CC(=O)N2N=C(N3CCCCC3)CC2c2ccccc2)cc1 (centres undefined)
GI50 [1]: > 100 µM (inactive)
GI50 [2]: > 100 µM (inactive)
GI50 [3]: > 100 µM (inactive)
GI50 [4]: > 100 µM (inactive)
GI50 [5]: > 100 µM (inactive)
GI50 [6]: > 100 µM (inactive)
GI50 [58]: > 100 µM (inactive)
GI50 [8]: > 100 µM (inactive)
GI50 [9]: > 100 µM (inactive)
GI50 [10]: > 100 µM
GI50 [11]: > 100 µM (inactive)
GI50 [12]: > 100 µM (inactive)
GI50 [13]: > 100 µM (inactive)
GI50 [14]: > 100 µM (inactive)
GI50 [15]: > 100 µM (inactive)
GI50 [16]: > 100 µM (inactive)
GI50 [17]: > 100 µM (inactive)
GI50 [18]: > 100 µM (inactive)
GI50 [19]: > 100 µM (inactive)
GI50 [20]: > 100 µM (inactive)
GI50 [21]: > 100 µM (inactive)
GI50 [23]: > 100 µM (inactive)
GI50 [24]: > 100 µM (inactive)
GI50 [25]: > 100 µM (inactive)
GI50 [26]: > 100 µM (inactive)
GI50 [27]: > 100 µM (inactive)
GI50 [28]: > 100 µM (inactive)
GI50 [29]: > 100 µM (inactive)
GI50 [30]: > 100 µM (inactive)
GI50 [31]: > 100 µM (inactive)
GI50 [32]: > 100 µM (inactive)
GI50 [33]: > 100 µM (inactive)
GI50 [34]: > 100 µM (inactive)
GI50 [36]: > 100 µM (inactive)
GI50 [37]: > 100 µM (inactive)
GI50 [38]: > 100 µM (inactive)
GI50 [39]: > 100 µM (inactive)
GI50 [40]: > 100 µM (inactive)
GI50 [42]: > 100 µM (inactive)
GI50 [43]: > 100 µM (inactive)
GI50 [44]: > 100 µM (inactive)
GI50 [45]: > 100 µM (inactive)
GI50 [46]: > 100 µM (inactive)
GI50 [47]: > 100 µM (inactive)
GI50 [48]: > 100 µM (inactive)
GI50 [49]: > 100 µM (inactive)
GI50 [50]: > 100 µM (inactive)
GI50 [51]: > 100 µM (inactive)
GI50 [52]: > 100 µM (inactive)
GI50 [53]: > 100 µM (inactive)
GI50 [54]: > 100 µM (inactive)
GI50 [55]: > 100 µM (inactive)
GI50 [59]: > 100 µM (inactive)
GI50 [56]: > 100 µM (inactive)
GI50 [57]: > 100 µM (inactive)

N#CC(=N)c1ncn(-c2ccccc2N)c1N
GI50 [1]: > 100 µM (inactive)
GI50 [2]: > 100 µM (inactive)
GI50 [3]: > 100 µM (inactive)
GI50 [4]: > 100 µM (inactive)
GI50 [5]: > 100 µM (inactive)
GI50 [6]: > 100 µM (inactive)
GI50 [7]: > 100 µM (inactive)
GI50 [58]: > 100 µM (inactive)
GI50 [8]: > 100 µM (inactive)
GI50 [9]: > 100 µM (inactive)
GI50 [10]: > 100 µM
GI50 [11]: > 100 µM (inactive)
GI50 [12]: > 100 µM (inactive)
GI50 [13]: > 100 µM (inactive)
GI50 [14]: > 100 µM (inactive)
GI50 [15]: > 100 µM (inactive)
GI50 [16]: > 100 µM (inactive)
GI50 [17]: > 100 µM (inactive)
GI50 [18]: > 100 µM (inactive)
GI50 [19]: > 100 µM (inactive)
GI50 [20]: > 100 µM (inactive)
GI50 [21]: > 100 µM (inactive)
GI50 [22]: > 100 µM (inactive)
GI50 [23]: > 100 µM (inactive)
GI50 [25]: > 100 µM (inactive)
GI50 [26]: > 100 µM (inactive)
GI50 [27]: > 100 µM (inactive)
GI50 [28]: > 100 µM (inactive)
GI50 [29]: > 100 µM (inactive)
GI50 [30]: > 100 µM (inactive)
GI50 [31]: > 100 µM (inactive)
GI50 [32]: > 100 µM (inactive)
GI50 [33]: > 100 µM (inactive)
GI50 [34]: > 100 µM (inactive)
GI50 [35]: > 100 µM (inactive)
GI50 [36]: > 100 µM (inactive)
GI50 [37]: > 100 µM (inactive)
GI50 [38]: > 100 µM (inactive)
GI50 [39]: > 100 µM (inactive)
GI50 [41]: > 100 µM (inactive)
GI50 [42]: > 100 µM (inactive)
GI50 [43]: > 100 µM (inactive)
GI50 [44]: > 100 µM (inactive)
GI50 [45]: > 100 µM (inactive)
GI50 [46]: > 100 µM (inactive)
GI50 [47]: > 100 µM (inactive)
GI50 [48]: > 100 µM (inactive)
GI50 [49]: > 100 µM (inactive)
GI50 [50]: > 100 µM (inactive)
GI50 [51]: > 100 µM (inactive)
GI50 [52]: > 100 µM (inactive)
GI50 [53]: > 100 µM (inactive)
GI50 [54]: > 100 µM (inactive)
GI50 [55]: > 100 µM (inactive)
GI50 [59]: > 100 µM (inactive)
GI50 [56]: > 100 µM (inactive)
GI50 [57]: > 100 µM (inactive)
